Test results from patent US20120230951A1 (priority 2011, published 2012).

Test system: GT-1a pRLuc H771b 75 S/I subgenomic replicon cell line
Assay: HCV GT-1a replicon luciferase reporter assay
Format: cell-based
Settings: Hepatitis C virus, GT1A, 72 h, read-out: GT-1a (IC50) (nM)
From the text: Determination of compounds HCV GT1b inhibitory replicon activity using the replicon luciferase reporter assay
The 2209-23 cell line was developed at Roche by stable transfection of the hepatoma cell line Huh-7 with a GT-1b Con1 subgenomic bicistronic replicon as previously described. Subgenomic replicon cell line was established in cured Huh7 cells, obtained from R. Bartenschlager (J. Virol. 2003 March; 77 (5):3007-19) The GT-1a H77 subgenomic replicon vector pRLuc H771b 75 S/I, was created by replacing the non structural region of the GT-1b Con1 subgenomic replicon by the one of the H77 strain, except for the first 75 amino acids of the NS3 protein that are from GT-1b Con1 strain. (J. Virol. 2001 77:5352-59) The GT-1a pRLuc H771b 75 S/I subgenomic replicon cell line was established in cured Huh7 cells, obtained from R. Bartenschlager. (J. Virol. 2003 March; 77 (5):3007-19)
All the subgenomic replicon cell lines were cultured in Dulbecco's Modified Eagle Medium (DMEM-Glutamax™-I; Invitrogen Cat #10569-010). The medium was supplemented with 10% Fetal Bovine Serum (Invitrogen Cat #10082-147), 1% penicillin/streptomycin (Mediatech Cat #30-002-CI) and 500 μg/ml of G418 (Mediatech Cat #30-234-CI). Cells were maintained at 37° C. in a humidified 5% CO2 atmosphere.
2209-23 cells were plated at a cell density of 5000 cells per well in 96 well plates (Becton Dickinson, Cat #35 3296). Cells were plated in 90 μl of Dulbecco's Modified Eagle Medium (DMEM-Glutamax™-I), (Invitrogen Cat #10569-010) medium was supplemented with 5% Fetal Bovine Serum (Invitrogen Cat #10082-147), 1% penicillin/streptomycin (Mediatech Cat #30-002-CI). The pRluc H771b 75 S/I cells were plated in 96-well plate at 3000 cells/well in DMEM-Glutamax™-I containing 5% FBS and 1% penicillin/streptomycin in 90 μl final volume. Cells were allowed to equilibrate for 24 hours at 37° C. and 5% CO2 at which time compounds were added. Compounds (or medium as a control) were added 24 hours post-plating in 3 fold dilutions at a final DMSO concentration of 1% in 10 ul volume. Renilla luciferase reporter signal was read 72 hours after addition of compounds using the Renilla Luciferase Assay System (Promega, cat #E2820). EC50 values were defined as the compound concentration at which a 50% reduction in the levels of renilla luciferase reporter was observed as compared to control samples in the absence of compound and was determined by non-linear fitting of compound dose-response data. The EC50 was approximated if maximum percentage inhibition was less than 90% and more than 70%.

SMILES	IC50 [nM]
COC(=O)NC(C(=O)N1CCCC1c1ncc(-c2ccc(-c3ccc(-c4cnc([C@@H]5Cc6cc(C#N)cc7c6N5C(=O)[C@@H](NC(=O)OC)CC7)[nH]4)cc3)cc2)[nH]1)C(C)C (stereo in doubt) [Compound I-26, {(2S,5S)-9-Cyano-2-[5-(4′-{2-[(R)-1-((R)-2-methoxycarbonylamino-3-methyl-butyryl)-pyrrolidin-2-yl]-3H-imidazol-4-yl}-biphenyl-4-yl)-1H-imidazol-2-yl]-4-oxo-1,2,4,5,6,7-hexahydro-azepino[3,2,1-hi]indol-5-yl}-carbamic acid methyl ester]	7.71
COC(=O)N[C@H]1CCc2cccc3c2N(C1=O)[C@H](c1ncc(-c2ccc(-c4ccc(-c5cnc([C@@H]6CCCN6C(=O)[C@@H](NC(=O)OC)[C@@H](C)O)[nH]5)cc4)cc2)[nH]1)C3 (stereo in doubt) [Compound I-50, {(2S,5S)-2-[5-(4-{2-[(S)-1-((S)-3-Hydroxy-2-methoxycarbonylamino-butyl)-pyrolidin-2-yl]-3H-imidazol-4-yl}-biphenyl-4-yl)-1H-imidazol-2-yl]-4-oxo-1,2,4,5,6,7-hexahydro-azepino[3,2,1-hi]indol-5-yl}-carbamic acid methyl ester]	6.62
COC(=O)NC(C(=O)N1CCOC[C@H]1c1ncc(-c2ccc(-c3ccc(-c4cnc([C@@H]5Cc6cccc7c6N5C(=O)[C@@H](NC(=O)OC)CC7)[nH]4)cc3)cc2)[nH]1)c1ccccc1 (stereo in doubt) [Compound I-63, {(2S,5S)-2-[5-(4′-{2-[(R)-4-((S)-2-Methoxycarbonylamino-2-phenyl-acetyl)-morpholin-3-yl]-3H-imidazol-4-yl}-biphenyl-4-yl)-1H-imidazol-2-yl]-4-oxo-1,2,4,5,6,7-hexahydro-azepino[3,2,1-hi]indol-5-yl}-carbamic acid methyl ester]	7.3
COC(=O)N[C@H]1CCc2cccc3c2N(C1=O)[C@H](c1ncc(-c2ccc(-c4ccc(-c5cnc([C@@H]6C[C@H](F)CN6C(=O)[C@@H](NC(=O)OC)C(C)C)[nH]5)cc4)cc2)[nH]1)C3 [Compound I-1, {(2S,5S)-2-[5-(4′-{2-[(2S,4S)-4-Fluoro-1-((S)-2-methoxycarbonylamino-3-methyl-butyryl)-pyrrolidin-2-yl]-3H-imidazol-4-yl}biphenyl-4-yl)-1H-imidazol-2-yl]-4-oxo-1,2,4,5,6,7-hexahydro-azepino[3,2,1-hi]indol-5-yl}-carbamic acid methyl ester]	6.33
COC(=O)N[C@H]1CCc2cccc3c2N(C1=O)[C@H](c1ncc(-c2ccc(-c4ccc(-c5cnc([C@@H]6C[C@@H](F)CN6C(=O)[C@@H](NC(=O)OC)C(C)C)[nH]5)cc4)cc2)[nH]1)C3 [Compound I-2, {(2S,5S)-2-[5-(4′-{2-[(2S,4R)-4-Fluoro-1-((S)-2-methoxycarbonylamino-3-methyl-butyryl)-pyrrolidin-2-yl]-3H-imidazol-4-yl}-biphenyl-4-yl)-1H-imidazol-2-yl]-4-oxo-1,2,4,5,6,7-hexahydro-azepino[3,2,1-hi]indol-5-yl}-carbamic acid methyl ester]	18.5
COC(=O)N[C@H]1CCc2cccc3c2N(C1=O)[C@H](c1ncc(-c2ccc(-c4ccc5nc([C@@H]6CCCN6C(=O)[C@@H](NC(=O)OC)C(C)C)[nH]c5c4)cc2)[nH]1)C3 [Compound I-3, {(2S,5S)-2-[5-(4-{2-[(S)-1-((S)-2-Methoxycarbonylamino-3-methyl-butyryl)-pyrrolidin-2-yl]-3H-benzoimidazol-5-yl}-phenyl)-1H-imidazol-2-yl]-4-oxo-1,2,4,5,6,7-hexahydro-azepino[3,2,1-hi]indol-5-yl}-carbamic acid methyl ester]	660
COC(=O)N[C@H]1CCc2cccc3c2N(C1=O)[C@H](c1ncc(-c2ccc(-c4ccc(-c5ccc6nc([C@@H]7CC(F)(F)CN7C(=O)[C@@H](NC(=O)OC)C(C)C)[nH]c6c5)cc4)cc2)[nH]1)C3 [Compound I-4, {(2S,5S)-2-[5-(4′-{2-[(S)-4,4-Difluoro-1-((S)-2-methoxycarbonylamino-3-methyl-butyryl)-pyrrolidin-2-yl]-3H-benzoimidazol-5-yl}-biphenyl-4-yl)-1H-imidazol-2-yl]-4-oxo-1,2,4,5,6,7-hexahydro-azepino[3,2,1-hi]indol-5-yl}-carbamic acid methyl ester]	4.11
COC(=O)N[C@H]1CCc2cccc3c2N(C1=O)[C@H](c1ncc(-c2ccc(-c4ccc(-c5ccc6nc([C@@H]7CCCN7C(=O)[C@@H](NC(=O)OC)C(C)C)[nH]c6c5)nc4)cc2)[nH]1)C3 [Compound I-7, ((2S,5S)-2-{5-[4-(6-{2-[(S)-1-((S)-2-Methoxycarbonylamino-3-methyl-butyryl)-pyrrolidin-2-yl]-3H-benzoimidazol-5-yl}-pyridin-3-yl)-phenyl]-1H-imidazol-2-yl}-4-oxo-1,2,4,5,6,7-hexahydro-azepino[3,2,1-hi]indol-5-yl)-carbamic acid methyl ester]	32.2
COC(=O)N[C@H]1CCc2cccc3c2N(C1=O)[C@H](c1ncc(-c2ccc(-c4ccc(-c5cnc([C@@H]6CC7(CN6C(=O)[C@@H](NC(=O)OC)C(C)C)OCCO7)[nH]5)cc4)cc2)[nH]1)C3 [Compound I-8, {(2S,5S)-2-[5-(4′-{2-[(S)-7-((S)-2-Methoxycarbonylamino-3-methyl-butyryl)-1,4-dioxa-7-aza-spiro[4.4]non-8-yl]-3H-imidazol-4-yl}-biphenyl-4-yl)-1H-imidazol-2-yl]-4-oxo-1,2,4,5,6,7-hexahydro-azepino[3,2,1-hi]indol-5-yl}-carbamic acid methyl Ester]	2.54
COC(=O)N[C@H]1CCc2cccc3c2N(C1=O)[C@H](c1nc2ccc(-c4ccc(-c5ccc(-c6cnc([C@@H]7CCCN7C(=O)[C@@H](NC(=O)OC)C(C)C)[nH]6)cc5)nc4)cc2[nH]1)C3 [Compound I-12, ((2S,5S)-2-{6-[6-(4-{2-[(S)-1-((S)-2-Methoxycarbonylamino-3-methyl-butyryl)-pyrrolidin-2-yl]-3H-imidazol-4-yl}-phenyl)-pyridin-3-yl]-1H-benzoimidazol-2-yl}-4-oxo-1,2,4,5,6,7-hexahydro-azepino[3,2,1-hi]indol-5-yl)-carbamic acid methyl ester]	18.6
COC(=O)N[C@H]1CCc2cccc3c2N(C1=O)[C@H](c1nc2ccc(-c4ccc(-c5ccc(-c6cnc([C@@H]7CC(F)(F)CN7C(=O)[C@@H](NC(=O)OC)C(C)C)[nH]6)cc5)nc4)cc2[nH]1)C3 [Compound I-13, ((2S,5S)-2-{6-[6-(4-{2-[(S)-1-((S)-2-Methoxycarbonylamino-3-methyl-butyryl)-4,4-difluoro-pyrrolidin-2-yl]-3H-imidazol-4-yl}-phenyl)-pyridin-3-yl]-1H-benzoimidazol-2-yl}-4-oxo-1,2,4,5,6,7-hexahydro-azepino[3,2,1-hi]indol-5-yl)-carbamic acid methyl ester]	41.8
COC(=O)N[C@H]1CCc2cccc3c2N(C1=O)[C@H](c1ncc(-c2cnc(-c4ccc(-c5cnc([C@@H]6CCCN6C(=O)[C@@H](NC(=O)OC)C(C)C)[nH]5)cc4)nc2)[nH]1)C3 [Compound I-15, ((2S,5S)-2-{5-[2-(4-{2-[(S)-1-((S)-2-Methoxycarbonylamino-3-methyl-butyryl)-pyrrolidin-2-yl]-3H-imidazol-4-yl}-phenyl)-pyrimidin-5-yl]-1H-imidazol-2-yl}-4-oxo-1,2,4,5,6,7-hexahydro-azepino[3,2,1-hi]indol-5-yl)-carbamic acid methyl ester]	13.4
COC(=O)N[C@H]1CCc2cccc3c2N(C1=O)[C@H](c1ncc(-c2cnc(-c4ccc(-c5cnc([C@@H]6CC(F)(F)CN6C(=O)[C@@H](NC(=O)OC)C(C)C)[nH]5)cc4)nc2)[nH]1)C3 [Compound I-16, ((2S,5S)-2-{5-[2-(4-{2-[(S)-1-((S)-2-Methoxycarbonylamino-3-methyl-butyryl)-4,4-difluoro-pyrrolidin-2-yl]-3H-imidazol-4-yl}-phenyl)-pyrimidin-5-yl]-1H-imidazol-2-yl}-4-oxo-1,2,4,5,6,7-hexahydro-azepino[3,2,1-hi]indol-5-yl)-carbamic acid methyl ester]	29.2
